Series [1] in a line: Caco-2 cell permeability. The series is classed as in vitro ADME. Conditions: human, Caco-2 monolayer. As for the experimental part: forskolin (Sigma 17018) was added and incubated for 5 min at 37 °C with gentle stirring (150 rpm). Reagents (#CISBIO 62AM4PEC) were added and, after incubation for 60 min at rt with gentle stirring (90 rpm) and protected from light, homogeneous time resolved fluorescence (HTRF, λEx: 320 nm; λEm: 620-665 nm) from each well was measured using a Tecan Infinite M1000 Pro. Data were normalized to the maximum effect of dopamine. EC50 and Ema x values were obtained after fitting the d ata to a four -parameter logistic equatio n using Prism V2. 1 (Graph Pad Inc, Chicago, USA) .
Cell permeability. The Caco-2 cell permeability of compound 30 was determined by the Uppsala university optimization and pharmaceutical profiling platform (UDOPP) as described previously26. Briefly, Caco-2 cell monolayers (passage 94-105) were grown on a permeable filter support and used on day 21 after seeding. Prior to the experiment a 10 µM solution of 30 was prepared by dilution of a 10 mM stock solution in DMSO with Hank’ s balanced salt solution (HBSS; 7.4) and warmed to 37 ° C. The Caco-2 filters were washed with pre-warmed HBSS prior to the experiment, and the solution of 30 was thereafter applied on the apical or basolateral side of the monolayer. Permeability was determined at 37 ° C and at pH 7.4 in both the apical and basolateral chamber, with a stirring rate of 500 rpm. […]
(In general: Caco-2 cells form a polarised layer with tight junctions and transporters.)

Series [2] concerns unilaterally 6-OHDA lesioned rats. Nature of the series: Rotation test in unilaterally 6-OHDA lesioned rats (model of Parkinsonism). The series is classed as in vivo. As for the experimental part:
Evaluation of compound 30 in rodent model of Parkinsonism. Male Sprague Dawley rats (150-200 g) were housed in air-conditioned rooms (12h dark/light cycle) at 20°C and a humidity of 53%. Experiments were performed in agreement with the European Communities Council Directive of 24 November 1986 (86/609/EEC) on the ethical use of animals and were approved by the local ethical committee (Stockholm North Ethical Committee, N105/16). Rats were anesthetized with ketamine (100 mg/kg, IP; Intervet)/xylazine (5 mg/kg, IP; Bayer, Kiel, Germany), pretreated with desipramine (25 mg/kg, IP; Sigma, St Louis, MO, USA)/pargyline (5 mg/kg, IP; Sigma), placed in a stereotaxi c instrument and injected with 6-OHDA (2.5 µl of a 5mg/ml solution; Sigma) into the median forebrain bundle (MFB) of the right hemisphere (AP -2.8 mm, ML -2.0 mm and V -9.0 mm). Two weeks after the unilateral 6-OHDA lesion, rats were injected with apomorphine (1 mg/kg, IP; Sigma) and their contralateral rotations were measured to determine the degree of nigrostriatal denervation. Four weeks after surgery, rats that were divided into two group according to the number of apomorphine-induced rotations. The rats were treated either with DMSO(17%)/saline (n=6) or compound 30 (n=7, 24 mg/kg, IP) dissolved in DMSO(17%)/saline. The number of rotations was calculated automatically with Noldus EthoVision XT11. 5 Software for 30 min following the drug administration. The two […]
groups were then compared by using a Mann-Whitney test. A second set of independent experiments using a new set of rats were carried out using the same protocol to assess the involvement of the D2R in the observed effect. In this case, rats were divided into four groups according to the number of apomorphine-induced rotations. The rats were treated with either DMSO(17%)/saline (n=6), raclopride (n=7, 2mg/kg, IP) dissolved in DMSO(17%)/saline, compound 30 (n=7, 24 mg/kg, IP) dissolved in DMSO(17%)/saline or the combination of raclopride (30 min pretreatment) and compound 30 (n=7). The rotation test was then performed for 30 min. […]

Structures are written as SMILES. Entries after “also recorded” stand apart in the source; their conditions may differ.

Regarding `CCCN(CCCCC(=O)Nc1nc2c(OC)ccc(OC)c2s1)C1Cc2ccccc2C1` [Compound 30], the Papp A→B at 60 min, 10 µM in series [1] (10 µM, pH 7.4, 37 °C, apical to basolateral) came out at 3.8 ×10⁻⁶ cm/s. In series [1] (pH 7.4, read-out: efflux ratio (ER)), the efflux ratio at 60 min, 10 µM is 8. Further, the “contralateral rotations (net rotations, 30 min) versus control group” value in series [2] (24 mg kg^−1 IP, 6-OHDA lesioned rats, p<0.01 first set, p<0.05 independent second set) is listed as “significantly higher number of contralateral rotations; also recorded: significant increase of contralateral rotations”. The “effect on contralateral rotations in combination with D2 antagonist raclopride” value in series [2] (30 at 24 mg kg^−1 IP with raclopride 2 mg kg^−1 IP (30 min pretreatment)) is given as “reversed”.

For orientation: Papp A→B means how fast a substance crosses the layer from the apical side.

For the origin of these results see article PMC8456950, “Structure‐Guided Design of G‐Protein‐Coupled Receptor Polypharmacology” (Angewandte Chemie (International Ed. in English), 2021).
